This note sets out measurements from ChEMBL document CHEMBL1137853, “Discovery of potent and selective beta-homophenylalanine based dipeptidyl peptidase IV inhibitors” (Bioorg Med Chem Lett, 2004).

SMILES strings stand for the structures. pIC50: −log10 of the molar value.

One data set addresses Dipeptidyl peptidase 2 (Homo sapiens, UniProt Q9UHL4). Nature of the data set: Inhibitory concentration against quiescent cell proline dipeptidase.
For the next data set, the target named is Dipeptidyl peptidase 4 (Homo sapiens, UniProt P27487). The data set is described as follows: Inhibitory concentration against Dipeptidyl peptidase IV.
Sequence of Dipeptidyl peptidase 4 (P27487 whole entry): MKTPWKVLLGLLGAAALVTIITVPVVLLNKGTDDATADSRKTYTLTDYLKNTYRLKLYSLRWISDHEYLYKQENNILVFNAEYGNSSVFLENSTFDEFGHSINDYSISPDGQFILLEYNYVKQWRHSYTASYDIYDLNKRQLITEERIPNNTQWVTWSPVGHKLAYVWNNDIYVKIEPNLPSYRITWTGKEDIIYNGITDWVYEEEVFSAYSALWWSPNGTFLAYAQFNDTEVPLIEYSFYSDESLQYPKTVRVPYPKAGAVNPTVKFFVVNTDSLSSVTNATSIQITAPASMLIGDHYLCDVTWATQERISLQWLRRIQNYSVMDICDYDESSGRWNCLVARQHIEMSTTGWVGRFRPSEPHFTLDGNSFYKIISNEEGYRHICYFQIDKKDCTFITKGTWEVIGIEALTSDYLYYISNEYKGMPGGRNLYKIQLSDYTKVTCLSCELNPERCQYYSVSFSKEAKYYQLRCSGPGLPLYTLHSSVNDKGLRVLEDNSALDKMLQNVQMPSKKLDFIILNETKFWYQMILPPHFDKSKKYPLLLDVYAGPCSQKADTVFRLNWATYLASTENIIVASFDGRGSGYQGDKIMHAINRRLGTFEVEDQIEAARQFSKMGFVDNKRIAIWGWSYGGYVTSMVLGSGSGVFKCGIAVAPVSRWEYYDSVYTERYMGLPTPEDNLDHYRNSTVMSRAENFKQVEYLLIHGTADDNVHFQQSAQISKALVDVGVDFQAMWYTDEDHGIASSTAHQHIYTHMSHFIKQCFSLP
A short description of data set [1]: Plasma clearance in rat at 1 mpk iv. The class given is ADME, organism-based. To be noted: 1 mg/kg.
Data set [2] is described as follows: Bioavailability in rat (dose 2 mg/kg p.o.). The class given is ADME, organism-based. To be noted: in vivo, po.
Data set [3] can be described thus: Bioavailability in rat (dose 1 mg/kg i.v.). To be noted: in vivo, iv. The class given is ADME, organism-based.
Data set [4] can be described thus: Half life in rat at 2 mpk po. The class given is ADME, organism-based. To be noted: in vivo, 2 mg/kg.
The nature of data set [5]: Plasma clearance in rat at 2 mpk po. It counts as ADME, organism-based. To be noted: 2 mg/kg, read-out: Clearance.
Data set [6] can be described thus: Half life in rat at 1 mpk iv. The conditions noted are these: in vivo, 1 mg/kg. It counts as ADME, organism-based.

With `Cc1ccccc1C[C@@H](N)CC(=O)N1CCSC1`, the pIC50 at Dipeptidyl peptidase 2 is 4.04; at Dipeptidyl peptidase 4, 6.01.
With `N[C@@H](CC(=O)N1CCSC1)Cc1ccc([N+](=O)[O-])cc1`, the negative logarithm of the IC50 (pIC50) at Dipeptidyl peptidase 2 was 4.61; against Dipeptidyl peptidase 4, 5.81.
As to `N[C@@H](CC(=O)N1CCSC1)Cc1cc(F)ccc1F`, the clearance in data set [1] amounted to 110 mL/min/kg. Further, the bioavailability in data set [2] and in data set [3] was 2% each time. Further, the half-life in data set [4] and in data set [6] was 30 min throughout. In addition, in data set [5], the CL/F stood at 110 mL/min/kg. Also, the results for the pIC50 on Dipeptidyl peptidase 2 and against Dipeptidyl peptidase 4 were 4.11 and 6.57, respectively.
On Dipeptidyl peptidase 4, `N[C@@H](CC(=O)N1CCSC1)Cc1ccoc1` had a negative logarithm of the IC50 (pIC50) of 4.33.
Take `N#Cc1cccc(C[C@@H](N)CC(=O)N2CCSC2)c1`: the pIC50 against Dipeptidyl peptidase 2 is 4.53; against Dipeptidyl peptidase 4 it was 5.05.
On to `N[C@@H](CC(=O)N1CCSC1)Cc1ccccc1C(F)(F)F`, for which the pIC50 is 4.09 against Dipeptidyl peptidase 2 and 5.65 against Dipeptidyl peptidase 4.
On to `N[C@@H](CC(=O)N1CCSC1)Cc1ccccn1`, for which the pIC50 against Dipeptidyl peptidase 4 is 4.40.
For `N[C@@H](CC(=O)N1CCSC1)Cc1ccccc1F`, the values for the pIC50 on Dipeptidyl peptidase 2 and against Dipeptidyl peptidase 4 were 4.30 and 6.03, respectively.
Turning to `N[C@@H](CC(=O)N1CCSC1)Cc1ccc(Cl)c(Cl)c1`, the values for the pIC50 against Dipeptidyl peptidase 2 and at Dipeptidyl peptidase 4 were 4.31 and 5.69, respectively.
For `N[C@@H](CC(=O)N1CCSC1)Cc1ccccc1`, at Dipeptidyl peptidase 2, the pIC50 is below 4.00.
Take `N[C@H](CCc1ccccc1)CC(=O)N1CCSC1`: the negative-log IC50 (pIC50) at Dipeptidyl peptidase 4 was 4.78.
On Dipeptidyl peptidase 4, `N[C@@H](CC(=O)N1CCSC1)Cc1ccncc1` gave a negative logarithm of the IC50 (pIC50) of 4.29.
The compound `N[C@@H](CC(=O)N1CCSC1)Cc1c(F)cccc1F` had a pIC50 at Dipeptidyl peptidase 4 of 5.07.
At Dipeptidyl peptidase 4, `N[C@@H](CC(=O)N1CCSC1)CC1CCCCC1` had a pIC50 of 4.48.
On Dipeptidyl peptidase 4, `N[C@@H](CC(=O)N1CCSC1)Cc1cccnc1` showed a negative logarithm of the IC50 (pIC50) of 4.35.
In the case of `N[C@@H](CC(=O)N1CCSC1)Cc1ccsc1`, the negative logarithm of the IC50 (pIC50) against Dipeptidyl peptidase 4 was 5.24.
For `N[C@@H](CC(=O)N1CCSC1)Cc1cccc(F)c1`, the pIC50 is 4.31 against Dipeptidyl peptidase 2 and 5.69 on Dipeptidyl peptidase 4.
On to `N[C@@H](CC(=O)N1CCSC1)Cc1ccc(C(F)(F)F)cc1`, for which, at Dipeptidyl peptidase 4, the negative-log IC50 (pIC50) was 5.11.
For `N[C@@H](CC(=O)N1CCSC1)Cc1cc(F)c(F)cc1F`, in data set [1], the clearance is 120 mL/min/kg. Besides, the bioavailability in data set [2] and in data set [3] was 3% each time. Further, the half-life in data set [4] and in data set [6] was 66 min in each case. Further, the CL/F in data set [5] came out at 120 mL/min/kg.
For `N[C@@H](CC(=O)N1CCSC1)CC1CCCC1`, at Dipeptidyl peptidase 4, the pIC50 was 4.56.
Consider `N[C@@H](CC(=O)N1CCSC1)Cc1ccc(F)cc1`, for which the pIC50 at Dipeptidyl peptidase 2 was 4.17; against Dipeptidyl peptidase 4, 5.48.
With `N[C@@H](CC(=O)N1CCSC1)Cc1cccc(C(F)(F)F)c1`, the negative-log IC50 (pIC50) against Dipeptidyl peptidase 2 was 4.61; at Dipeptidyl peptidase 4, 5.44.
On to `N[C@@H](CC(=O)N1CCSC1)Cc1ccc(I)cc1`, for which the pIC50 against Dipeptidyl peptidase 2 is 5.24; on Dipeptidyl peptidase 4 it was 4.97.
With `N[C@@H](CC(=O)N1CCSC1)Cc1ccc(F)c(F)c1`, the values for the pIC50 against Dipeptidyl peptidase 2 and against Dipeptidyl peptidase 4 were 4.47 and 5.77, respectively.
Take `N[C@@H](CC(=O)N1CCSC1)Cc1ccc(F)cc1F`: the pIC50 against Dipeptidyl peptidase 2 is 4.25; against Dipeptidyl peptidase 4, 6.23.
For the compound `N[C@@H](CC(=O)N1CCSC1)c1ccccc1`, the negative-log IC50 (pIC50) at Dipeptidyl peptidase 4 is below 4.00.
Regarding `N#Cc1ccccc1C[C@@H](N)CC(=O)N1CCSC1`, the pIC50 was below 4.00 against Dipeptidyl peptidase 2 and 5.60 against Dipeptidyl peptidase 4.
Consider `COc1cc(OC)cc(-c2nc(-c3ccc(Cl)cc3Cl)c(CN(C)C)c(N(C)C)n2)c1`, for which the pIC50 on Dipeptidyl peptidase 4 was 10.00.
Consider `N#Cc1ccc(C[C@@H](N)CC(=O)N2CCSC2)cc1`, for which the pIC50 against Dipeptidyl peptidase 4 was 4.83.
On Dipeptidyl peptidase 4, `N[C@@H](CC(=O)N1CCSC1)Cc1cccc(F)c1F` gave a pIC50 of 5.03.
With `N[C@@H](CC(=O)N1CCSC1)Cc1ccc(Cl)cc1`, the pIC50 on Dipeptidyl peptidase 2 was 4.44; against Dipeptidyl peptidase 4, 5.52.

The pIC50 is the IC50 on a negative log10 scale, so that one unit is a factor of ten. Low values mean a high IC50, high ones a low IC50. In general, clearance refers to a measure of how efficiently the substance is removed, as volume per time. A lower clearance goes with a low capacity for elimination. A word on the bioavailability: it is the share of a dose that reaches the circulation, judged against a reference dose that is usually intravenous. In general, half-life refers to the time in which the quantity being followed falls by half. A low value points to fast loss.
